By pKi is commonly meant −log10 of the Ki, conventionally taken in molar units. A higher pKi goes with a small Ki. Broadly, the EC90 is the point of the concentration-response curve where the effect stands at 90%. Read a low EC90 as an effect from little substance. The AUC is concentration integrated over time.

pKi: −log10 of the molar value.

Our source for the Ki, EC90 and AUC values is ChEMBL document CHEMBL1157517, “Hepatitis C virus NS3-4A serine protease inhibitors: SAR of new P1 derivatives of SCH 503034” (Bioorg Med Chem Lett, 2008).

The nature of data set [1]: Inhibition of HCV NS3 serine protease. The arrangement: species or system Hepacivirus hominis.
For another data set, the system named is Hepatitis C virus. Put plainly: Antiviral activity against HCV. In kind it is functional, Hepacivirus hominis.
The nature of data set [2]: AUC in rat at 3 mg/kg, po. In kind it is ADME, organism-based. The arrangement: dose 3 mg/kg, route oral. The following applies: plasma.

Compound `CC(C)(C)NC(=O)N[C@H](C(=O)N1C[C@H]2[C@@H]([C@H]1C(=O)NC(CC1(O)CCC1)C(=O)C(N)=O)C2(C)C)C(C)(C)C` (stereo partly drawn) had a pKi in data set [1] of 3.79.
Regarding `CC(C)(C)NC(=O)N[C@H](C(=O)N1C[C@H]2[C@@H]([C@H]1C(=O)NC(CC1CC(F)(F)C1)C(=O)C(N)=O)C2(C)C)C(C)(C)C` (stereo partly drawn), in data set [1], the pKi was 7.01. In the data set on Hepatitis C virus, this compound yielded an EC90 of 1200 nM. In addition, in data set [2], the AUC came out at 1.1 µM·h.
`CC(C)(C)NC(=O)N[C@H](C(=O)N1C[C@H]2[C@@H]([C@H]1C(=O)NC(CC(F)(F)F)C(=O)C(N)=O)C2(C)C)C(C)(C)C` (stereo partly drawn) showed a pKi in data set [1] of 6.92.
In turn, `CC(F)(F)CC(NC(=O)[C@@H]1[C@@H]2[C@H](CN1C(=O)[C@@H](NC(=O)NC(C)(C)C)C(C)(C)C)C2(C)C)C(=O)C(N)=O` (stereo partly drawn) gave a pKi in data set [1] of 6.64.
Still for that read-out and setting: with `CCC(F)(F)CC(NC(=O)[C@@H]1[C@@H]2[C@H](CN1C(=O)[C@@H](NC(=O)NC(C)(C)C)C(C)(C)C)C2(C)C)C(=O)C(N)=O` (stereo partly drawn) the figure was 6.44.
For the compound `CC(C)(C)NC(=O)N[C@H](C(=O)N1C[C@H]2[C@@H]([C@H]1C(=O)NC(CCC(F)(F)F)C(=O)C(N)=O)C2(C)C)C(C)(C)C` (stereo partly drawn), the pKi in data set [1] was 7.19. Besides, the EC90 in the data set with Hepatitis C virus is 600 nM. Also, the AUC in data set [2] amounted to 0.02 µM·h.
`CC(C)(C)NC(=O)N[C@H](C(=O)N1C[C@H]2[C@@H]([C@H]1C(=O)NC(C[C@H]1C[C@@H](O)C1)C(=O)C(N)=O)C2(C)C)C(C)(C)C` (stereo partly drawn) gave a pKi in data set [1] of 6.80.
In turn, `CC(C)(C)NC(=O)N[C@H](C(=O)N1C[C@H]2[C@@H]([C@H]1C(=O)NC(CCCC(F)(F)F)C(=O)C(N)=O)C2(C)C)C(C)(C)C` (stereo partly drawn) gave a pKi in data set [1] of 5.89.
Consider `CC(C)(C)NC(=O)N[C@H](C(=O)N1C[C@H]2[C@@H]([C@H]1C(=O)NC(CC1(F)CCC1)C(=O)C(N)=O)C2(C)C)C(C)(C)C` (stereo partly drawn), for which the pKi in data set [1] was 6.68. Besides, the AUC in data set [2] came out at 0.31 µM·h.
`CC(C)(C)NC(=O)N[C@H](C(=O)N1C[C@H]2[C@@H]([C@H]1C(=O)NC(CC1CC1(F)F)C(=O)C(N)=O)C2(C)C)C(C)(C)C` (stereo partly drawn): the pKi in data set [1] was 7.30. The 90% effect level with Hepatitis C virus (EC90) was put at 1000 nM.
As for `CC(C)(C)NC(=O)N[C@H](C(=O)N1C[C@H]2[C@@H]([C@H]1C(=O)NC(CC1CCC1)C(=O)C(N)=O)C2(C)C)C(C)(C)C` (stereo partly drawn) [BOCEPREVIR], in data set [1], the pKi is 7.85. Also, the EC90 in the data set with Hepatitis C virus stood at 350 nM.
